Experimental data reported in patent US8278337B2, “Substituted pyridines that are JNK inhibitors” (Merck Sharp & Dohme, priority 2006, dated 2012).
“And” between values parts separate entries of the source, which are not always exact repeats. Equal entries are not always repeated.

target: JNK1 (Homo sapiens, UniProt P45983); assay: DELFIA kinase assay, JNK1; type: biochemical; settings: DELFIA assay, 2 nM JNK1, 7 uM ATP, 10 min pre-incubation
Experimental: Assay DELFIA (Dissociation Enhanced Lanthanide Fluorescence Immuno-Assay) Assay:
Before initiation of kinase reactions, compounds were pre-incubated with the enzyme for 10 minutes. Pre-incubation reactions contained 50 mM HEPES pH 7.3, 10 mM MgCl2, 1 mM DTT, 75 mM NaCl, 1 mM EDTA, 1 mM EGTA, 0.01% CHAPS, 2 nM JNK1, 6 ug/mL biotinylated GST-ATF2, 0.1 mg/ml BSA, 5% DMSO and 0-100 μM compound in a total volume of 40 μL. After a 10 minute room temperature pre-incubation, 10 μL of 35 μM ATP was added to start the reaction (final concentration of ATP=7 uM). Reactions were incubated at room temperature for 30 minutes. A small aliquot (10 uL) was taken and quenched by adding into 190 uL of DELFIA Assay buffer containing 100 mM EDTA. The amount of phosphate transferred to biotinylated GST-ATF2 was measured using the Dissociation Enhanced Lanthanide Fluorescence Immuno-assay (DELFIA) from Perkin Elmer according to manufacturers protocol. Briefly, biotinylated GST-ATF2 was captured on streptavidin coated plates for 1 hour, washed twice, then incubated for 1 hour with a 1:1000 dilution of rabbit-anti-phospho-ATF2 antibody and a 1:3500 dilution of Europium-labeled anti-rabbit secondary antibody. Free antibody was removed with six washes, Europium was dissociated from the antibody, and Europium fluorescence was measured using an excitation wavelength of 340 nm and an emission wavelength of 615 nm. JNK2 and JNK3 kinase reactions were carried out similarly, with the exception that the final concentration of ATP was 4 uM and 2 uM, respectively.

Sequence of JNK1 (P45983 whole entry, species assumed): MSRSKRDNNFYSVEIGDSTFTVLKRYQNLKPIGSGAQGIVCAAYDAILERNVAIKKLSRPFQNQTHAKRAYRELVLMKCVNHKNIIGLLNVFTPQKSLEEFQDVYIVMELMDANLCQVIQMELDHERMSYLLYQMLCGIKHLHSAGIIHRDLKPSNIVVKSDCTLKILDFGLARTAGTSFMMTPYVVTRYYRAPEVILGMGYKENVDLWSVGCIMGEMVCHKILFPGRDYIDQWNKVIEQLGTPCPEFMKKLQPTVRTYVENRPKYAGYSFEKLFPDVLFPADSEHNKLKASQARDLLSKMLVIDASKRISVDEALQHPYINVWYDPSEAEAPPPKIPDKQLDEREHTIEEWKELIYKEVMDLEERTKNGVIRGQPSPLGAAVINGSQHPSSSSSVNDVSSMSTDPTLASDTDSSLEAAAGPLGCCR

IC50 [nM] | SMILES
14 | Cc1ccc2cc(-n3cc(CNC(=O)c4cccc(C(=O)NC(C)C)n4)cn3)ccc2n1 [Compound 149]

same assay, conditions: DELFIA assay, 2 nM JNK1, 7 uM ATP, 10 min pre-incubation; second table; read-out: JNK 1 IC50

IC50 [nM] | SMILES
7 | CC(C)NC(=O)c1cccc(C(=O)NCc2cnn(-c3cnc4ccccc4c3)c2)n1 [Compound 144]
14 | Cc1ccc2cc(-n3cc(CNC(=O)c4cccc(C(=O)NC(C)C)n4)cn3)ccc2n1 [Compound 149]
13 | CC(C)NC(=O)c1cccc(C(=O)NCc2cnn(-c3ccc4nccnc4c3)c2)n1 [Compound 151]

same assay, conditions: DELFIA, biotinylated GST-ATF2 substrate, 10 minute pre-incubation, final ATP 7 uM

SMILES | IC50
CC(C)NC(=O)c1cccc(C(=O)Nc2cccnc2)n1 [Compound 90] | > 1000 nM and 1030 to 10000 nM
CC(C)NC(=O)c1cccc(C(=O)Nc2ccc3nccnc3c2)n1 [Compound 91] | > 1000 nM and 1030 to 10000 nM
Cc1cnc(CNC(=O)c2cccc(C(=O)NC(C)C)n2)cn1 [Compound 92] | > 1000 nM and 1030 to 10000 nM
CC(C)NC(=O)c1cccc(C(=O)NCC2CCN(C(=O)OC(C)(C)C)C2)n1 (stereo not shown) [Compound 95] | > 1000 nM and 1030 to 10000 nM
CC(C)NC(=O)c1cccc(C(=O)NCc2ccccn2)n1 [Compound 101] | 1030 to 10000 nM and > 1000 nM
Cc1nn(C)c(C)c1CNC(=O)c1cccc(C(=O)NC(C)C)n1 [Compound 102] | 1030 to 10000 nM and > 1000 nM
Cc1cc(CNC(=O)c2cccc(C(=O)NC(C)C)n2)nn1C [Compound 103] | 1030 to 10000 nM and > 1000 nM
CC(C)NC(=O)c1cccc(C(=O)NCc2nccs2)n1 [Compound 104] | 1030 to 10000 nM and > 1000 nM
Cc1nn(-c2ccccc2)c(C)c1CNC(=O)c1cccc(C(=O)NC(C)C)n1 [Compound 105] | 1030 to 10000 nM and > 1000 nM
CC(C)NC(=O)c1cccc(C(=O)NCc2nc3ccccc3n2C)n1 [Compound 107] | > 1000 nM and 1030 to 10000 nM
CC(C)NC(=O)c1cccc(C(=O)NCc2cnn(C)c2)n1 [Compound 116] | > 1000 nM and 1030 to 10000 nM
CC(C)NC(=O)c1cccc(C(=O)NCc2cn[nH]c2)n1 [Compound 119] | > 1000 nM and 1030 to 10000 nM
CC(C)NC(=O)c1cccc(C(=O)NNc2ccc(S(C)(=O)=O)cc2)n1 [Compound 122] | > 1000 nM and 1030 to 10000 nM
CC(C)NC(=O)c1cccc(C(=O)N[C@H](C)c2ccc(O)cc2)n1 [Compound 123] | 102 to 959 nM
CC(C)NC(=O)c1cccc(C(=O)N[C@@H](C)c2ccc(O)cc2)n1 [Compound 124] | 102 to 959 nM
CC(C)NC(=O)c1cccc(C(=O)NCc2cccc(Oc3ccccn3)c2)n1 [Compound 126] | 102 to 959 nM

SMILES | IC50
Cc1nc2cc(CNC(=O)c3cccc(C(=O)NC(C)C)n3)ccc2n1C [Compound 127] | 102 to 959 nM
Cc1nc2ccc(CNC(=O)c3cccc(C(=O)NC(C)C)n3)cc2n1C [Compound 128] | 102 to 959 nM
Cc1cccc(-n2cc(CNC(=O)c3cccc(C(=O)NC(C)C)n3)cn2)c1 [Compound 129] | 4 to 97 nM and 4 to 19 nM
Cc1ccc(-n2cc(CNC(=O)c3cccc(C(=O)NC(C)C)n3)cn2)cc1 [Compound 130] | 4 to 19 nM and 4 to 97 nM
CC(C)NC(=O)c1cccc(C(=O)NCc2cnn(-c3cc(Cl)cc(Cl)c3)c2)n1 [Compound 138] | 4 to 19 nM and 4 to 97 nM
CC(C)NC(=O)c1cccc(C(=O)NCc2cnn(-c3cnc4ccccc4c3)c2)n1 [Compound 144] | 4 to 19 nM and 4 to 97 nM
CC(C)NC(=O)c1cccc(C(=O)NCc2cnn(-c3cncnc3)c2)n1 [Compound 145] | 102 to 959 nM
Cc1ccc2cc(-n3cc(CNC(=O)c4cccc(C(=O)NC(C)C)n4)cn3)ccc2n1 [Compound 149] | 4 to 19 nM and 4 to 97 nM
CC(C)NC(=O)c1cccc(C(=O)NCc2cnn(-c3ccc4nccnc4c3)c2)n1 [Compound 151] | 4 to 19 nM and 4 to 97 nM
CC(C)NC(=O)c1cccc(C(=O)NCc2cnn(-c3ccccn3)c2)n1 [Compound 156] | 102 to 959 nM
CC(C)NC(=O)c1cccc(C(=O)NCc2cnn(-c3ccccc3Cl)c2)n1 [Compound 157] | 102 to 959 nM
CC(C)NC(=O)c1cccc(C(=O)NCc2cnn(-c3ccncc3)c2)n1 [Compound 159] | 102 to 959 nM
CC(C)NC(=O)c1cccc(C(=O)NCc2cnn(-c3ncccn3)c2)n1 [Compound 160] | 102 to 959 nM
CC(C)NC(=O)c1cccc(C(=O)NCc2cnn(-c3cc(F)cc(C#N)c3)c2)n1 [Compound 162] | 102 to 959 nM
CC(C)NC(=O)c1cccc(C(=O)NCc2cnn(-c3nccs3)c2)n1 [Compound 163] | 102 to 959 nM
Cc1cccc(-c2ccc(CNC(=O)c3cccc(C(=O)NC(C)C)n3)cn2)c1 [Compound 174] | 102 to 959 nM

More lines, now with the values ahead:

IC50 | SMILES
4 to 97 nM | Cc1cc(NC(=O)c2cccc(C(=O)NCc3cnn(-c4ccc(S(C)(=O)=O)cc4)c3)n2)no1 [Compound 78]
4 to 97 nM | CC(C)NC(=O)c1cccc(C(=O)NCc2nc3ccccc3s2)n1 [Compound 85]
4 to 97 nM | COc1ccc(-c2cc(CNC(=O)c3cccc(C(=O)NC(C)C)n3)no2)cc1 [Compound 86]
4 to 97 nM | CC(C)NC(=O)c1cccc(C(=O)NCc2ccc3sc(NC(N)=O)nc3c2)n1 [Compound 87]
102 to 959 nM | CC(C)NC(=O)c1cccc(C(=O)NCc2ccc(S(C)(=O)=O)cc2)n1 [Compound 88]
102 to 959 nM | CC(C)NC(=O)c1cccc(C(=O)NCc2ccc3c(c2)OCO3)n1 [Compound 89]
102 to 959 nM | CC(C)NC(=O)c1cccc(C(=O)NCc2cccnc2)n1 [Compound 93]
102 to 959 nM | CC(C)NC(=O)c1cccc(C(=O)NCC2CCN(C(=O)OC(C)(C)C)CC2)n1 [Compound 94]
102 to 959 nM | CC(C)NC(=O)c1cccc(C(=O)NCc2cccc(Cl)c2)n1 [Compound 96]
102 to 959 nM | CC(C)NC(=O)c1cccc(C(=O)NCc2ccc(Cl)cc2)n1 [Compound 97]
102 to 959 nM | CC(C)NC(=O)c1cccc(C(=O)NCc2ccc(S(N)(=O)=O)cc2)n1 [Compound 98]
102 to 959 nM | CC(C)NC(=O)c1cccc(C(=O)NCc2ccc(Cl)nc2)n1 [Compound 99]
4 to 97 nM | CC(C)NC(=O)c1cccc(C(=O)NCc2cnn(-c3ccccc3)c2)n1 [Compound 100]
102 to 959 nM | CC(C)NC(=O)c1cccc(C(=O)NCc2nc3ccccc3[nH]2)n1 [Compound 106]
102 to 959 nM | Cc1nc2cc(CNC(=O)c3cccc(C(=O)NC(C)C)n3)ccc2[nH]1 [Compound 108]
102 to 959 nM | CC(C)NC(=O)c1cccc(C(=O)NCc2ccc(-n3cccn3)cc2)n1 [Compound 109]
102 to 959 nM | Cc1ccc(CNC(=O)c2cccc(C(=O)NC(C)C)n2)cc1F [Compound 110]
102 to 959 nM | COc1ccc(CNC(=O)c2cccc(C(=O)NC(C)C)n2)cc1OC [Compound 111]
102 to 959 nM | CC(C)NC(=O)c1cccc(C(=O)NCc2ccc(-c3ccccc3)cc2)n1 [Compound 112]
102 to 959 nM | CC(C)NC(=O)c1cccc(C(=O)NCc2ccc(N)nc2)n1 [Compound 113]
102 to 959 nM | CC(C)NC(=O)c1cccc(C(=O)NCc2ccc(N3CCCC3)nc2)n1 [Compound 114]
102 to 959 nM | CC(C)NC(=O)c1cccc(C(=O)NCc2ccc(N3CCOCC3)nc2)n1 [Compound 115]

IC50 | SMILES
102 to 959 nM | CC(C)NC(=O)c1cccc(C(=O)NCc2cnn(C(C)C)c2)n1 [Compound 117]
102 to 959 nM | CC(C)NC(=O)c1cccc(C(=O)NCc2ccc(-c3ccccn3)s2)n1 [Compound 118]
102 to 959 nM | CC(C)NC(=O)c1cccc(C(=O)NCc2ccc(N3CCCC3=O)cc2)n1 [Compound 120]
102 to 959 nM | CC(C)NC(=O)c1cccc(C(=O)NC(C)c2ccc(S(C)(=O)=O)cc2)n1 (stereo not shown) [Compound 121]
4 to 97 nM | CC(C)NC(=O)c1cccc(C(=O)NCc2cccc(-c3ccccc3)c2)n1 [Compound 125]
4 to 97 nM | CC(C)NC(=O)c1cccc(C(=O)NCc2cnn(-c3ccc(F)c(Cl)c3)c2)n1 [Compound 131]
4 to 97 nM | CC(C)NC(=O)c1cccc(C(=O)NCc2cnn(-c3cccc(Cl)c3)c2)n1 [Compound 132]
4 to 97 nM | CC(C)NC(=O)c1cccc(C(=O)NCc2cnn(-c3ccc(Cl)cc3)c2)n1 [Compound 133]
4 to 97 nM | CC(C)NC(=O)c1cccc(C(=O)NCc2cnn(-c3cccc(S(C)(=O)=O)c3)c2)n1 [Compound 136]
4 to 97 nM | CC(C)NC(=O)c1cccc(C(=O)NCc2cnn(-c3cccc(F)c3)c2)n1 [Compound 139]
4 to 97 nM | CC(C)NC(=O)c1cccc(C(=O)NCc2cnn(-c3cccnc3)c2)n1 [Compound 141]
4 to 97 nM | CC(C)NC(=O)c1cccc(C(=O)NCc2cnn(-c3ccc(CN)cc3)c2)n1 [Compound 143]
4 to 97 nM | Cc1nc2cc(-n3cc(CNC(=O)c4cccc(C(=O)NC(C)C)n4)cn3)ccc2[nH]1 [Compound 146]
4 to 97 nM | CC(C)NC(=O)c1cccc(C(=O)NCc2cnn(-c3ccc4ncn(C)c4c3)c2)n1 [Compound 147]
4 to 97 nM | CC(C)NC(=O)c1cccc(C(=O)NCc2cnn(-c3ccc4[nH]cnc4c3)c2)n1 [Compound 148]
4 to 97 nM | CC(C)NC(=O)c1cccc(C(=O)NCc2cnn(-c3ccc(F)c(C(F)(F)F)c3)c2)n1 [Compound 150]
4 to 97 nM | CC(C)NC(=O)c1cccc(C(=O)NCc2cnn(-c3cncc(F)c3)c2)n1 [Compound 153]
4 to 97 nM | CC(C)NC(=O)c1cccc(C(=O)NCc2cnn(-c3ccc([S+](C)[O-])cc3)c2)n1 (stereo not shown) [Compound 154]
4 to 97 nM | CC(C)NC(=O)c1cccc(C(=O)NCc2cnn(-c3cc(Br)cc(C#N)c3)c2)n1 [Compound 155]
4 to 97 nM | CC(C)NC(=O)c1cccc(C(=O)NCc2cnn(-c3cncc(C#N)c3)c2)n1 [Compound 161]
4 to 97 nM | CC(C)NC(=O)c1cccc(C(=O)NCc2ccc(-c3cccc(F)c3)nc2)n1 [Compound 175]
